Data as given in patent US11141397B2, “Composition for improving efficacy of L-DOPA treatment” (priority 2017, dated 2021).
“Also recorded” adds a separate entry of the source.

System: intrastriatal rotenone mouse model for PD
Experiment: Rotarod test (motor function) in the intrastriatal rotenone model
Format: in vivo, C57BL/6J mice
Procedure: Forty-eight seven week-old C57BL/6J mice (Charles River, The Netherlands) were housed at room temperature under a 12 h light/dark cycle. Food and water were provided ad libitum. […] Mice underwent stereotaxic surgery under isoflurane anesthesia: a hole was drilled in the skull and a cannula inserted in the right striatum at the following stereotaxic coordinates: AP +0.4, ML -2.0 from bregma, and DV -3.3 below dura. Rotenone-treated animals were injected with 5.4 μg of freshly prepared rotenone solution (dissolved in 2 μl DMSO). Sham-treated animals were injected with the vehicle (2 μl DMSO). 93 days after surgery the mice were euthanized by decapitation. The motor performance of each mouse was assessed in the Rotarod test as described in Inden et al. “Neurodegeneration of mouse nigrostriatal dopaminergic system induced by repeated oral administration of rotenone is prevented by 4-phenylbutyrate, a chemical chaperone” J. […] Briefly, mice were placed on an accelerating rod with speeds starting with 2 rpm and gradually increasing to 20 rpm. Time to first fall was recorded for a maximum of 300 s. […] Animals were divided into four groups of 12 animals (Sham+CD, Sham+AD, Rotenone+CD, and Rotenone+AD). […] The AD also contained supplementary amounts of choline, phospholipids, selenium, folic acid, and vitamins B6, B12, C, D, and E, above standard levels in the control diet. […] The rotarod test was started 1.5h after benserazide administration and performed as described below. […] ANOVAs were followed by a Tukey's multiple comparison test when appropriate. For the rotarod test performance over time, data were analyzed with a general linear model repeated measure ANOVA with the within subject factor time and the between subject factors surgery and diet. […] Analyses were performed using SPSS 22.0.

Structure (SMILES): N[C@@H](Cc1ccc(O)c(O)c1)C(=O)O [levodopa, L-3,4-di-hydroxy-phenylalanine]
- rotarod performance (time on rotarod) (days 26 and 27 after surgery, 60 minutes after 20 mg/kg oral levodopa vs vehicle, before dietary intervention, F(1,92)=24.77, p<0.0001): overall effect of levodopa on the animals' motor performances
- effect on rotenone-induced motor dysfunction (rotarod) (overall effect, day 65-93, FIG. 1, three-way ANOVA): there was an effect; also recorded: alleviated rotenone-induced motor dysfunction
- ability to remain on the rod (rotenone-injected mice on AD, levodopa 10 or 20 mg/kg vs saline or 5 mg/kg, day 65-93, p<0.001): better ability to remain on the rod
- rotarod performance (rotenone-treated animals on CD, levodopa 20 mg/kg vs 5 mg/kg or saline, day 65-93, p<0.01): performed significantly better
